Structures can show the parent of a compound that is named as a salt. Where two headings read alike, the source gives them in different places.
What was measured:
[1] = system: latent HIV-1 in JLat 8.6 cells; format: cell-based
HIV-1 LTR promoter = format: cell-based
[2] = Pharmakon 1600 library, 10 uM, 24 hours, FIG. 10

## COc1ccc(CCN(C)CCCC(C#N)(c2ccc(OC)c(OC)c2)C(C)C)cc1OC (racemic) [V24, (±)-Verapamil hydrochloride]
[1]
  synergy in reactivation of HIV-1 latency: synergized

## CC(C)NCC(O)c1ccc(O)c(O)c1.Cl (racemic) [V86, (±)-Isoproterenol hydrochloride]
HIV-1 LTR promoter
  identified as variability enhancer (VE) in noise screen: variability enhancers
[1]
  synergy in reactivation of HIV-1 latency: synergized

## C=CCC1(C(C)CCC)C(=O)N=C(S)NC1=O (stereo not shown) [V8, thiamylal sodium]
HIV-1 LTR promoter; [2]
  identified as variability enhancer (VE) in noise screen: variability enhancers
[1]
  synergy in reactivation of HIV-1 latency: synergized

## NNc1nncc2ccccc12 [V17, hydralazine hydrochloride]
HIV-1 LTR promoter
  identified as variability enhancer (VE) in noise screen: variability enhancers
[1]
  synergy in reactivation of HIV-1 latency: synergized

## COc1ccc2c(c1)c(CC(=O)O)c(C)n2C(=O)c1ccc(Cl)cc1 [V18, Indomethacin]
HIV-1 LTR promoter; [2]
  identified as variability enhancer (VE) in noise screen: variability enhancers
[1]
  synergy in reactivation of HIV-1 latency: synergized

## CC(C)c1c(C(=O)Nc2ccccc2)c(-c2ccccc2)c(-c2ccc(F)cc2)n1CC[C@@H](O)C[C@@H](O)CC(=O)[O-].CC(C)c1c(C(=O)Nc2ccccc2)c(-c2ccccc2)c(-c2ccc(F)cc2)n1CC[C@@H](O)C[C@@H](O)CC(=O)[O-].[Ca+2] [V20, atorvastatin calcium]
HIV-1 LTR promoter
  identified as variability enhancer (VE) in noise screen: variability enhancers
[1]
  synergy in reactivation of HIV-1 latency: synergized

## CC(C)(CO)[C@@H](O)C(=O)NCCC(=O)[O-].[Na+] [V22, pantothenic acid(d) na salt]
HIV-1 LTR promoter
  identified as variability enhancer (VE) in noise screen: variability enhancers
[1]
  synergy in reactivation of HIV-1 latency: synergized

## NCCc1cc(O)c(O)cc1O [V25, oxidopamine hydrochloride]
HIV-1 LTR promoter; [2]
  identified as variability enhancer (VE) in noise screen: variability enhancers
[1]
  synergy in reactivation of HIV-1 latency: synergized

## C[C@]12CC[C@H]3[C@@H](CC[C@@]45O[C@@H]4C(O)=C(C#N)C[C@]35C)[C@@H]1CC[C@@H]2O [V26, trilostane]
HIV-1 LTR promoter; [2]
  identified as variability enhancer (VE) in noise screen: variability enhancers
[1]
  synergy in reactivation of HIV-1 latency: synergized

## Cc1cn[nH]c1 [V27, fomepizole hydrochloride]
HIV-1 LTR promoter; [2]
  identified as variability enhancer (VE) in noise screen: variability enhancers
[1]
  synergy in reactivation of HIV-1 latency: synergized

## NC(=O)C[S+]([O-])C(c1ccccc1)c1ccccc1 (stereo not shown) [V28, modafinil]
HIV-1 LTR promoter; [2]
  identified as variability enhancer (VE) in noise screen: variability enhancers
[1]
  synergy in reactivation of HIV-1 latency: synergized

## Cc1cccc(C)c1N=C1NCCCS1 [V29, Xylazine hydrochloride]
HIV-1 LTR promoter; [2]
  identified as variability enhancer (VE) in noise screen: variability enhancers
[1]
  synergy in reactivation of HIV-1 latency: synergized

## O=C(Nc1ccccc1)OCC(CN1CCCCC1)OC(=O)Nc1ccccc1 (stereo not shown) [V30, diperodon hydrochloride]
HIV-1 LTR promoter; [2]
  identified as variability enhancer (VE) in noise screen: variability enhancers
[1]
  synergy in reactivation of HIV-1 latency: synergized

## Cc1cc(CC(=O)O)n(C)c1C(=O)c1ccc(Cl)cc1 [V31, zomepirac sodium]
HIV-1 LTR promoter; [2]
  identified as variability enhancer (VE) in noise screen: variability enhancers
[1]
  synergy in reactivation of HIV-1 latency: synergized

## c1ccc2[nH]c(-c3cscn3)nc2c1 [V33, thiabendazole]
HIV-1 LTR promoter; [2]
  identified as variability enhancer (VE) in noise screen: variability enhancers
[1]
  synergy in reactivation of HIV-1 latency: synergized

## Cc1cc(C(C#N)c2ccc(Cl)cc2)c(Cl)cc1NC(=O)c1cc(I)cc(I)c1O (stereo not shown) [V34, closantel]
HIV-1 LTR promoter; [2]
  identified as variability enhancer (VE) in noise screen: variability enhancers
[1]
  synergy in reactivation of HIV-1 latency: synergized

## COc1ccc(-c2ccc3cc(C(=O)O)ccc3c2)cc1C12CC3CC(CC(C3)C1)C2 [V36, adapalene]
HIV-1 LTR promoter; [2]
  identified as variability enhancer (VE) in noise screen: variability enhancers
[1]
  synergy in reactivation of HIV-1 latency: synergized

## CC(C)(C)NC(=O)[C@H]1CC[C@H]2[C@@H]3CC[C@H]4NC(=O)C=C[C@]4(C)[C@H]3CC[C@]12C [V37, finasteride]
HIV-1 LTR promoter; [2]
  identified as variability enhancer (VE) in noise screen: variability enhancers
[1]
  synergy in reactivation of HIV-1 latency: synergized

## CCN(CC)CCNC(=O)c1ccc(N)cc1 [V38, Procainamide hydrochloride]
HIV-1 LTR promoter; [2]
  identified as variability enhancer (VE) in noise screen: variability enhancers
[1]
  synergy in reactivation of HIV-1 latency: synergized

## CC1=C(C(=O)O)N2C(=O)[C@@H](NC(=O)[C@H](N)c3ccc(O)cc3)[C@H]2SC1 [V40, cefadroxil]
HIV-1 LTR promoter; [2]
  identified as variability enhancer (VE) in noise screen: variability enhancers
[1]
  synergy in reactivation of HIV-1 latency: synergized

## COc1cnc(NS(=O)(=O)c2ccc(N)cc2)nc1 [V41, sulfameter]
HIV-1 LTR promoter; [2]
  identified as variability enhancer (VE) in noise screen: variability enhancers
[1]
  synergy in reactivation of HIV-1 latency: synergized

## Nc1ccc(S(=O)(=O)Nc2cnc3ccccc3n2)cc1 [V42, sulfaquinoxaline sodium]
HIV-1 LTR promoter; [2]
  identified as variability enhancer (VE) in noise screen: variability enhancers
[1]
  synergy in reactivation of HIV-1 latency: synergized

## CC[C@H]1OC(=O)[C@H](C)[C@@H](O[C@H]2C[C@@](C)(OC)[C@@H](O)[C@H](C)O2)[C@H](C)[C@@H](O[C@@H]2O[C@H](C)C[C@H](N(C)C)[C@H]2O)[C@](C)(O)C[C@@H](C)CN(C)[C@H](C)[C@@H](O)[C@]1(C)O [V43, azithromycin]
HIV-1 LTR promoter; [2]
  identified as variability enhancer (VE) in noise screen: variability enhancers
[1]
  synergy in reactivation of HIV-1 latency: synergized

## CO[C@@]1(NC(=O)Cc2cccs2)C(=O)N2C(C(=O)O)=C(COC(N)=O)CS[C@@H]21 [V46, cefoxitin sodium]
HIV-1 LTR promoter; [2]
  identified as variability enhancer (VE) in noise screen: variability enhancers
[1]
  synergy in reactivation of HIV-1 latency: synergized

## CN1CCCN=C1COC(=O)C(O)(c1ccccc1)C1CCCCC1 (stereo not shown) [V47, oxyphencyclimine hydrochloride]
HIV-1 LTR promoter; [2]
  identified as variability enhancer (VE) in noise screen: variability enhancers
[1]
  synergy in reactivation of HIV-1 latency: synergized

## CCN(CC)CC#CCOC(=O)C(O)(c1ccccc1)C1CCCCC1 (stereo not shown) [V48, oxybutynin chloride]
HIV-1 LTR promoter
  identified as variability enhancer (VE) in noise screen: variability enhancers
[1]
  synergy in reactivation of HIV-1 latency: synergized

## C[N+]12CCC(CC1)C(OC(=O)C(O)(c1ccccc1)c1ccccc1)C2 (stereo not shown) [V49, clidinium bromide]
HIV-1 LTR promoter; [2]
  identified as variability enhancer (VE) in noise screen: variability enhancers
[1]
  synergy in reactivation of HIV-1 latency: synergized

## CNCCC(Oc1ccc(C(F)(F)F)cc1)c1ccccc1 (stereo not shown) [V50, Fluoxetine hydrochloride]
HIV-1 LTR promoter
  identified as variability enhancer (VE) in noise screen: variability enhancers
[1]
  synergy in reactivation of HIV-1 latency: synergized

## Cc1ccc(S(=O)(=O)NC(=O)NN2CCCCCC2)cc1 [V51, Tolazamide]
HIV-1 LTR promoter; [2]
  identified as variability enhancer (VE) in noise screen: variability enhancers
[1]
  synergy in reactivation of HIV-1 latency: synergized

## COc1cc(C(=O)NCc2ccc(OCCN(C)C)cc2)cc(OC)c1OC [V52, trimethobenzamide hydrochloride]
HIV-1 LTR promoter; [2]
  identified as variability enhancer (VE) in noise screen: variability enhancers
[1]
  synergy in reactivation of HIV-1 latency: synergized

## CCN(CC)CCNC(=O)c1cc(Cl)c(N)cc1OC [V53, Metoclopramide hydrochloride]
HIV-1 LTR promoter; [2]
  identified as variability enhancer (VE) in noise screen: variability enhancers
[1]
  synergy in reactivation of HIV-1 latency: synergized

## Cc1cccc(N(C)C(=S)Oc2ccc3ccccc3c2)c1 [V54, tolnaftate]
HIV-1 LTR promoter; [2]
  identified as variability enhancer (VE) in noise screen: variability enhancers
[1]
  synergy in reactivation of HIV-1 latency: synergized

## CN(C)CCC(c1ccc(Cl)cc1)c1ccccn1 (stereo not shown) [V58, chlorpheniramine maleate]
HIV-1 LTR promoter
  identified as variability enhancer (VE) in noise screen: variability enhancers
[1]
  synergy in reactivation of HIV-1 latency: synergized

## O=C(O)CCCc1ccccc1 [V59, phenylbutyric acid]
HIV-1 LTR promoter
  identified as variability enhancer (VE) in noise screen: variability enhancers
[1]
  synergy in reactivation of HIV-1 latency: synergized

## C#CCN(C)Cc1ccccc1 [V61, Pargyline hydrochloride]
HIV-1 LTR promoter; [2]
  identified as variability enhancer (VE) in noise screen: variability enhancers
[1]
  synergy in reactivation of HIV-1 latency: synergized

## CCCc1nc2c(C)cc(-c3nc4ccccc4n3C)cc2n1Cc1ccc(-c2ccccc2C(=O)O)cc1 [V62, telmisartan]
HIV-1 LTR promoter; [2]
  identified as variability enhancer (VE) in noise screen: variability enhancers
[1]
  synergy in reactivation of HIV-1 latency: synergized

## O=c1[nH]c(=O)n(Cl)c(=O)n1Cl [V63, troclosene potassium]
HIV-1 LTR promoter
  identified as variability enhancer (VE) in noise screen: variability enhancers
[1]
  synergy in reactivation of HIV-1 latency: synergized

## Oc1ccc(O)cc1 [V76, hydroquinone]
HIV-1 LTR promoter
  identified as variability enhancer (VE) in noise screen: variability enhancers
[1]
  synergy in reactivation of HIV-1 latency: synergized

## CO[C@H]1C[C@H](O[C@@H]2/C(C)=C/C[C@@H]3C[C@@H](C[C@]4(CC[C@H](C)[C@@H](C5CCCCC5)O4)O3)OC(=O)[C@@H]3C=C(C)/C(=N/O)[C@H]4OC/C(=C\C=C\[C@@H]2C)[C@]43O)O[C@@H](C)[C@@H]1O [V77, selamectin]
HIV-1 LTR promoter
  identified as variability enhancer (VE) in noise screen: variability enhancers
[1]
  synergy in reactivation of HIV-1 latency: synergized

## N[C@@H](Cc1ccc(O)c(O)c1)C(=O)O [V78, levodopa]
HIV-1 LTR promoter; [2]
  identified as variability enhancer (VE) in noise screen: variability enhancers
[1]
  synergy in reactivation of HIV-1 latency: synergized

## CC(C)[C@H](N)C(=O)OCC(CO)OCn1cnc2c(=O)nc(N)[nH]c21 (stereo partly shown) [V80, valganciclovir hydrochloride]
HIV-1 LTR promoter; [2]
  identified as variability enhancer (VE) in noise screen: variability enhancers
[1]
  synergy in reactivation of HIV-1 latency: synergized

## CC(C)NCC(O)c1ccc(NS(C)(=O)=O)cc1 (stereo not shown) [V83, sotalol hydrochloride]
HIV-1 LTR promoter; [2]
  identified as variability enhancer (VE) in noise screen: variability enhancers
[1]
  synergy in reactivation of HIV-1 latency: synergized

## COc1ccccc1OCCNCC(O)COc1cccc2[nH]c3ccccc3c12 (stereo not shown) [V84, carvedilol]
HIV-1 LTR promoter; [2]
  identified as variability enhancer (VE) in noise screen: variability enhancers
[1]
  synergy in reactivation of HIV-1 latency: synergized

## O=C(O)[C@H]1/C(=C/CO)O[C@@H]2CC(=O)N21 [V85, clavulanate lithium]
HIV-1 LTR promoter; [2]
  identified as variability enhancer (VE) in noise screen: variability enhancers
[1]
  synergy in reactivation of HIV-1 latency: synergized

## CNC(C)C(O)c1ccccc1 (stereo not shown) [V87, racephedrine hydrochloride]
HIV-1 LTR promoter; [2]
  identified as variability enhancer (VE) in noise screen: variability enhancers
[1]
  synergy in reactivation of HIV-1 latency: synergized

## bleomycin [V66]
HIV-1 LTR promoter; [2]
  identified as variability enhancer (VE) in noise screen: variability enhancers

## meclocycline sulfosalicylate
HIV-1 LTR promoter; Pharmakon 1600 library, 10 uM, 24 hours, FIG. 12
  identified as variability suppressor (VS) in noise screen: variability suppressors

Reference: patent publication US10184933B2, “Compositions, systems and methods for gene expression noise drug screening and uses thereof” (priority 2013, dated 2019)
